{"source": "patent US7781446B2", "about": "“Use of CCI-779 as an antineoplastic agent” (Wyeth LLC, priority 2000, dated 2010)", "key": {"[1]": {"test_system": "Renal tumor line CRL-1161", "assay": "In vitro growth of human renal tumor cells, 3H-thymidine uptake", "format": "cell-based", "conditions": "48 hours with drug", "experimental": "(§1) In vitro test procedure: Renal tumor lines HTB-44 and CRL-1161 were obtained from the American Tissue Culture Collection (ATCC), Bethesda, Md. SN12-C line was obtained from Dr. J. Fidler, M. D. Anderson Hospital, Houston, Tex. Cells were plated in MEM (Gibco) supplemented with 2 mM glutamine, 1 mM sodium pyruvate, 5 ml penicillin-streptomycin solution, 1 mM non-essential amino acid solution, 10% fetal bovine solution. Cells (5×10^3) were plated in 96 well plates with a final volume of […] and incubated for 24 hours at 37° C. Log dilutions of CCI-779 beginning at 100 μg/ml were then added to the cultures for 48 hours. Over the last 5 hours, cells were pulsed with 1 μci ^3H-thymidine (New England Nuclear, 6.7 ci/m Mol). Cells were then harvested and the degree of thymidine uptake determined by liquid scintillation spectrometry. The IC50 was determined as the concentration that produced 50% of the maximum uptake of thymidine in control untreated cells.\n(§2) Human renal cell tumors were cultured in vitro in the presence or absence of CCI-779 for 3 days and the effect on growth determined by ^3H-thymidine incorporation of control versus treated cells."}, "Renal tumor line HTB-44": {"test_system": "Renal tumor line HTB-44", "assay": "In vitro growth of human renal tumor cells, 3H-thymidine uptake", "format": "cell-based", "conditions": "48 hours with drug", "experimental": "as §1, §2"}, "Renal tumor line SN12-C": {"test_system": "Renal tumor line SN12-C", "assay": "In vitro growth of human renal tumor cells, 3H-thymidine uptake", "format": "cell-based", "conditions": "48 hours with drug", "experimental": "as §1, §2"}, "[2]": {"test_system": "CRL-1161 human renal tumor cells", "assay": "Human renal tumor cell xenograft in nude mice", "format": "in vivo, Balb/c nu/nu mice", "conditions": "CRL-1161 xenograft; for Tumor Mass / % T/C (Treated/Control × 100): 25 mg/kg oral", "experimental": "(§3) In vivo test procedure: Female Balb/c nu/nu mice were obtained from Charles River Labs, Wilmington, Del., at 6-8 weeks of age. Mice (n=10/group) were injected sc with 5×10^6 cells resuspended in a 50% solution of Matrigel (BD Biosciences) and tumors allowed to develop. When tumor size reached 100 mg, mice were treated orally with CCI-779 at 25 mg/kg. CCI-779 was dosed for 5 consecutive days with repeated 14 day cycles throughout the duration of the experiment. The formulation used for CCI-779 was a 50% ethanol, 49% phosal, 1% tween 80 vehicle for resuspending CCI-779, where the stock was resuspended into a 1:10 dilution of the vehicle prior to dosing. Tumor growth was evaluated using a vernier caliper and volume (l×w×h) was converted to mass using the formula: 1×w^2/2.\n(§4) The effect of CCI-779 in two human renal lines (HTB-44 and CRL-1161) was evaluated in vivo by engrafting tumor cells on the flanks of nude mice. Once tumors were established at a size of about 100 mg, mice were treated with CCI-779 or a vehicle control."}, "[3]": {"test_system": "HTB-44 human renal tumor cells", "assay": "Human renal tumor cell xenograft in nude mice", "format": "in vivo, Balb/c nu/nu mice", "conditions": "HTB-44 xenograft; for Tumor Mass / % T/C (Treated/Control × 100): 25 mg/kg oral", "experimental": "as §3, §4"}, "[4]": {"test_system": "advanced cancer (solid tumors and lymphomas) refractory to standard therapy", "assay": "Phase I clinical trial, 30 minute i.v. infusion daily for 5 days every two to three weeks", "format": "in vivo, human", "experimental": "(§5) Two single agent (CCI-779) Phase I clinical trials have been conducted. In the first study, CCI-779 was administered as a 30 minute i.v. infusion daily for 5 days, every two to three weeks. In the second study, CCI-779 was administered as a 30 minute i.v. infusion, once weekly. Both trials were open label, ascending dose, single-arm, multicenter studies. Patients were allowed to continue treatment as long as the CCI-779 was tolerated and there was no evidence of obvious disease progression. The following eligibility criteria were used:\n(§6) Inclusion Criteria • 1. Patients with a histologic diagnosis of advanced cancer (solid tumors and, in the first study, lymphomas) who are refractory to standard therapy or for whom standard therapy is not appropriate. • 2. Measurable or evaluable disease. • 3. At least 3 weeks since prior chemotherapy and/or radiation therapy (6 weeks since nitrosoureas or mitomycin C). • 4. At least 4 weeks since any other investigational agent. • 5. Age at least 18 years old. • 6. Adequate bone marrow, renal, and hepatic function. • 7. Serum cholesterol<350 mg/dL and triglycerides […]. • 8. ECOG performance status 0-2. • 9. Life expectancy of at least 3 months. • 10. Signed, dated, witnessed written informed consent.\n(§7) A total of 63 patients and 24 patients were enrolled in first and second studies, respectively. Dose levels ranged from 0.75-24 mg/m^2 and 7.5-220 mg/m^2, with the daily×5 every 2 weeks and weekly schedules, respectively."}, "[5]": {"test_system": "advanced cancer (solid tumors) refractory to standard therapy", "assay": "Phase I clinical trial, 30 minute i.v. infusion once weekly", "format": "in vivo, human", "conditions": "for number of partial responses: weekly dosage schedule", "experimental": "as §5, §6, §7"}, "[6]": {"conditions": "Homo sapiens, read-out: CCI-779 IC50 (50% growth inhibitory concentration)"}, "[7]": {"conditions": "5 consecutive days, 14 day cycles, day 0"}, "[8]": {"conditions": "25 mg/kg, versus vehicle control"}, "[9]": {"conditions": "patients having soft tissue sarcoma, daily×5 dosage schedule"}, "[10]": {"conditions": "renal cancer patients, daily×5 schedule"}, "[11]": {"conditions": "patients having renal cancer, weekly schedule"}}, "data": [{"smiles": "CO[C@H]1C[C@@H]2CC[C@@H](C)[C@@](O)(O2)C(=O)C(=O)N2CCCC[C@H]2C(=O)O[C@H]([C@H](C)C[C@@H]2CC[C@@H](OC(=O)C(C)(CO)CO)[C@H](OC)C2)CC(=O)[C@H](C)/C=C(\\C)[C@@H](O)[C@@H](OC)C(=O)[C@H](C)C[C@H](C)/C=C/C=C/C=C/1C", "note": "[CCI-779, rapamycin 42-ester with 3-hydroxy-2-(hydroxymethyl)-2-methylpropionic acid]", "values": [{"measurement": "CCI-779 IC50 (50% growth inhibitory concentration)", "setting": "[1]", "value": "low nM range"}, {"measurement": "IC50", "setting": "[1]; [6]", "value": 2, "unit": "nM"}, {"measurement": "CCI-779 IC50 (50% growth inhibitory concentration)", "setting": "Renal tumor line HTB-44", "value": "low nM range"}, {"measurement": "IC50", "setting": "Renal tumor line HTB-44; [6]", "value": 5, "unit": "nM"}, {"measurement": "CCI-779 IC50 (50% growth inhibitory concentration)", "setting": "Renal tumor line SN12-C", "value": "low nM range"}, {"measurement": "IC50", "setting": "Renal tumor line SN12-C; Homo sapiens, SN12C, read-out: CCI-779 IC50 (50% growth inhibitory concentration)", "value": 5.5, "unit": "nM"}, {"measurement": "Tumor Mass", "setting": "[2]; [7]", "value": "272 ± 14", "unit": "mg"}, {"measurement": "% T/C (Treated/Control × 100)", "setting": "[2]; day 0", "value": 100, "unit": "%"}, {"measurement": "% T/C (Treated/Control × 100)", "setting": "[2]; day 7", "value": 62, "unit": "%"}, {"measurement": "Tumor Mass", "setting": "[2]; day 7", "value": "219 ± 16", "unit": "mg"}, {"measurement": "% T/C (Treated/Control × 100)", "setting": "[2]; day 21", "value": 60, "unit": "%"}, {"measurement": "Tumor Mass", "setting": "[2]; day 21", "value": "226 ± 17", "unit": "mg"}, {"measurement": "% T/C (Treated/Control × 100)", "setting": "[2]; day 35", "value": 42, "unit": "%"}, {"measurement": "Tumor Mass", "setting": "[2]; day 35", "value": "200 ± 21", "unit": "mg"}, {"measurement": "% T/C (Treated/Control × 100)", "setting": "[2]; day 49", "value": 42, "unit": "%"}, {"measurement": "Tumor Mass", "setting": "[2]; day 49", "value": "229 ± 28", "unit": "mg"}, {"measurement": "% T/C (Treated/Control × 100)", "setting": "[2]; day 55", "value": 53, "unit": "%"}, {"measurement": "Tumor Mass", "setting": "[2]; day 55", "value": "268 ± 30", "unit": "mg"}, {"measurement": "inhibition of tumor cell growth in the mice", "setting": "[2]; [8]", "value": "significant inhibition of tumor cell growth"}, {"measurement": "Tumor Mass", "setting": "[3]; [7]", "value": "290 ± 15", "unit": "mg"}, {"measurement": "% T/C (Treated/Control × 100)", "setting": "[3]; day 0", "value": 101, "unit": "%"}, {"measurement": "% T/C (Treated/Control × 100)", "setting": "[3]; day 7", "value": 71, "unit": "%"}, {"measurement": "Tumor Mass", "setting": "[3]; day 7", "value": "156 ± 13", "unit": "mg"}, {"measurement": "% T/C (Treated/Control × 100)", "setting": "[3]; day 21", "value": 41, "unit": "%"}, {"measurement": "Tumor Mass", "setting": "[3]; day 21", "value": "252 ± 48", "unit": "mg"}, {"measurement": "% T/C (Treated/Control × 100)", "setting": "[3]; day 35", "value": 41, "unit": "%"}, {"measurement": "Tumor Mass", "setting": "[3]; day 35", "value": "453 ± 85", "unit": "mg"}, {"measurement": "% T/C (Treated/Control × 100)", "setting": "[3]; day 49", "value": 48, "unit": "%"}, {"measurement": "Tumor Mass", "setting": "[3]; day 49", "value": "980 ± 155", "unit": "mg"}, {"measurement": "% T/C (Treated/Control × 100)", "setting": "[3]; day 55", "value": 44, "unit": "%"}, {"measurement": "Tumor Mass", "setting": "[3]; day 55", "value": "1050 ± 183", "unit": "mg"}, {"measurement": "inhibition of tumor cell growth in the mice", "setting": "[3]; [8]", "value": "significant inhibition of tumor cell growth"}, {"measurement": "number of minor responses", "setting": "[4]; patients having cervical cancer, daily×5 dosage schedule", "value": "one"}, {"measurement": "number of partial responses", "setting": "[4]; patients having non-small cell lung cancer, daily×5 dosage schedule", "value": "one"}, {"measurement": "number of minor responses", "setting": "[4]; [9]", "value": 2}, {"measurement": "number of possible partial responses", "setting": "[4]; [9]", "value": 1}, {"measurement": "number of stable disease", "setting": "[4]; [9]", "value": 1}, {"measurement": "number of unconfirmed minor responses", "setting": "[4]; patients having uterine cancer, daily×5 dosage schedule", "value": "one"}, {"measurement": "duration of stable disease", "setting": "[4]; [10]", "value": "approximately 5 months"}, {"measurement": "number of minor responses", "setting": "[4]; [10]", "value": 1}, {"measurement": "number of stable disease (<25% increase to <25% reduction in tumor size)", "setting": "[4]; [10]", "value": 1}, {"measurement": "number of unconfirmed minor responses", "setting": "[4]; [10]", "value": 1}, {"measurement": "number of minor responses (≧25% but<50% reduction in tumor size)", "setting": "[5]; [11]", "value": 2}, {"measurement": "number of partial responses (≧50% reduction in tumor size)", "setting": "[5]; [11]", "value": 1}, {"measurement": "number of partial responses", "setting": "[5]; patients with breast cancer", "value": "one"}, {"measurement": "number of partial responses", "setting": "[5]; patients with neuroendocrine tumor of the lung", "value": "one"}]}]}
